Results taken from patent US20200338045A1, “ISOINDOLINE COMPOSITIONS AND METHODS FOR TREATING NEURODEGENERATIVE DISEASE” (priority 2017, published 2020).
Entries after “also recorded” stand apart in the source; their conditions may differ.

Experiments:
[1] = Phase 1 MAD safety (adverse events, laboratory, ECG); assay type: in vivo, human
Procedure: In Part B, healthy young subjects in each cohort received the same dose once daily for 14 days after overnight fasting. Cohort dosing started at 280 mg, followed by 560 mg and 840 mg in subsequent cohorts. In each cohort, eight subjects received drug and two received placebo. A fourth cohort of healthy elderly subjects (≥65 years old) received a 560 mg dose vs. placebo daily for 14 days (seven active, two placebo).
Subjects were dosed in the morning with 240 mL of water after an 8-hour fast, and remained in a semi-reclined position for 1 hour and fasting for 2 hours post-administration, except for the fed cohort in Part A. Subjects in each MAD cohort were confined to the clinical facility from check-in on Day 0 until the pharmacokinetic sample was collected on Day 16, 48 hours after administration of the last dose on Day 14. Subjects returned to the clinical facility for follow-up visits on Days 24 and 35.
Safety variables, including incidence of adverse events (AEs), vital signs, clinical laboratory findings, 12-lead electrocardiographs (ECGs), physical examination, and affective and cognitive measures (Part B only), were summarized for all subjects who received study drug.

[2] = Phase 1b/2a clinical trial (COG0102): safety and tolerability; assay type: in vivo, human; conditions: for Mild TEAEs-n (%) / Moderate TEAEs-n (%) / SAEs-n (%) / Severe TEAEs-n (%) / TEAEs-n (%): once daily 28 days
Procedure: Safety and pharmacokinetics were primary objectives of the study, with changes in molecular biomarkers and cognitive outcomes identified as an exploratory objective. […]
This trial (ClinicalTrials.gov NCT02907567) was a randomized, double-blind, placebo-controlled clinical trial in mild to moderate Alzheimer's patients (MMSE 18-26) (See FIG. 1 for clinical trial design). The trial was conducted at six sites in Australia. Patients were randomized into placebo (n=5) or CT1812-treated groups: 90 mg (n=4), 280 mg (n=5) or 560 mg (n=5) and treated once daily for 28 days. Clinical chemistry was done at Sydpath (Sydney, AU). Pharmacokinetics were done at CPR Pharma Services (Adelaide, AU). Cerebrospinal fluid samples were taken at screening and day 21-28 of treatment and aliquoted. Plasma samples were taken at screening or Day 1 (one sample) and day 14-28, then spun down to separate plasma and aliquoted. One set of CSF samples was analyzed for Alzheimer's disease biomarkers; protein measurements (Aβ42, A1340, total tau, tau phosphorylated at threonine 181 (phosphorylated tau), NFL and neurogranin) were performed using commercially available ELISA assays from Fujirebio according to the manufacturer's instructions (INNOTEST β-AMYLOID(1-42), INNOTEST β-AMYLOID(1-40), INNOTEST hTau Ag, INNOTEST PHOSPHO-TAU(181P), Uman Diagnostics NFL assay). Neurogranin was measured with a sandwich ELISA method using antibodies Ng2 and Ng22 developed at the University of Gotteborg (Kvartsberg et al. 2015). Identical aliquots of CSF, and plasma were analyzed for protein expression changes via LC/MSMS at Caprion (see below).

[3] = tested on: Aβ oligomers bound to neuronal receptors; assay: Aβ oligomer binding to / displacement from neuronal receptors; assay type: cell-based
[4] = MAD, 840 mg, Age ≤64 yrs (n = 8)

## CC(C)(C)Oc1cc(CCC(C)(C)N2Cc3ccc(S(C)(=O)=O)cc3C2)ccc1O [CT1812]
[1]; [4]
  Subjects (%) with at least one Treatment-Emergent AE: Upper respiratory tract infection: (25%)
  Subjects (%) with at least one Treatment-Emergent AE: Vomiting: (25%)
[1]; MAD, CT1812 (of 31 subjects)
  Treatment-emergent AEs, % of subjects: 81%
  Treatment-emergent AEs, number of subjects: 25
[1]; MAD, Total Active (n = 31)
  Number of Subjects with at least one Treatment-Emergent AE: All TEAEs: 25
  Number of Subjects with at least one Treatment-Emergent AE: Back pain: 2
  Number of Subjects with at least one Treatment-Emergent AE: Catheter site phlebitis: 2
  Number of Subjects with at least one Treatment-Emergent AE: Dizziness: 3
  Number of Subjects with at least one Treatment-Emergent AE: Dyspepsia: 3
  Number of Subjects with at least one Treatment-Emergent AE: Headache: 10
  Number of Subjects with at least one Treatment-Emergent AE: Nausea: 2
  Number of Subjects with at least one Treatment-Emergent AE: Procedural pain: 6
  Number of Subjects with at least one Treatment-Emergent AE: Upper respiratory tract infection: 8
  Number of Subjects with at least one Treatment-Emergent AE: Vomiting: 2
  Subjects (%) with at least one Treatment-Emergent AE: All TEAEs: (%81)
  Subjects (%) with at least one Treatment-Emergent AE: Back pain: (6%)
  Subjects (%) with at least one Treatment-Emergent AE: Catheter site phlebitis: (6%)
  Subjects (%) with at least one Treatment-Emergent AE: Dizziness: (10%)
  Subjects (%) with at least one Treatment-Emergent AE: Dyspepsia: (10%)
  Subjects (%) with at least one Treatment-Emergent AE: Headache: (32%)
  Subjects (%) with at least one Treatment-Emergent AE: Nausea: (6%)
  Subjects (%) with at least one Treatment-Emergent AE: Procedural pain: (19%)
  Subjects (%) with at least one Treatment-Emergent AE: Upper respiratory tract infection: (26%)
  Subjects (%) with at least one Treatment-Emergent AE: Vomiting: (6%)
[1]; MAD, improved after discontinuing CT1812
  rash: One subject developed a rash
[1]; four subjects in MAD study (including one on placebo)
  increase in liver function tests: below 3 × the upper limit of normal
[2]; 90 mg (as in Table 3)
  Headache-n (%): 1 (25%) n (%)
  Lymphocytopenia-n (%): 0 (0%) n (%)
  Nausea-n (%): 0 (0%) n (%)
  Vomiting-n (%): 0 (0%) n (%)
[2]; 90 mg (n = 4)
  Mild TEAEs-n (%): 4 (100%) n (%)
  Moderate TEAEs-n (%): 0 (0%) n (%)
  SAEs-n (%): 0 (0%) n (%)
  Severe TEAEs-n (%): 0 (0%) n (%)
  TEAEs-n (%): 3 (75%) n (%)
[2]; 280 mg (as in Table 3)
  Headache-n (%): 0 (0%) n (%)
  Lymphocytopenia-n (%): 0 (0%) n (%)
  Nausea-n (%): 0 (0%) n (%)
  Vomiting-n (%): 0 (0%) n (%)
[2]; 280 mg (n = 5)
  Mild TEAEs-n (%): 3 (60%) n (%)
  Moderate TEAEs-n (%): 1 (20%) n (%)
  SAEs-n (%): 0 (0%) n (%)
  Severe TEAEs-n (%): 0 (0%) n (%)
  TEAEs-n (%): 4 (80%) n (%)
[2]; 560 mg (as in Table 3)
  Headache-n (%): 2 (40%) n (%)
  Nausea-n (%): 2 (40%) n (%)
  Vomiting-n (%): 2 (40%) n (%)
[2]; 560 mg (n = 5)
  Mild TEAEs-n (%): 5 (100%) n (%)
  Moderate TEAEs-n (%): 3 (60%) n (%)
  SAEs-n (%): 0 (0%) n (%)
  Severe TEAEs-n (%): 0 (0%) n (%)
  TEAEs-n (%): 5 (100%) n (%)
[2]; 90, 280 and 560 mg once daily 28 days, mild to moderate Alzheimer's patients
  safety and tolerability: generally safe and well tolerated
[2]; one participant at 560 mg, resolved by end of study, no increase in bilirubin
  ALT: ~4.7 ×ULN
[3]
  displacement of Aβ oligomers from neuronal/synaptic receptors: displaces amyloid beta (Aβ) oligomers from neuronal receptors; also recorded: displace oligomers from synaptic receptor sites; also recorded: prevents and displaces binding of Aβ oligomers to neurons
